Test results: publication PMC11574021, “CEP192 localises mitotic Aurora-A activity by priming its interaction with TPX2” (The EMBO Journal, 2024)

Assays:
[1] = biological target: T1, phosphorylated Aurora-A CAKD (Homo sapiens, UniProt O14965, C290A/C393A); experiment: ADP-Glo kinase assay, kemptide substrate; type: biochemical; details: ADP-Glo, phosphorylated Aurora-A CAKD, kemptide; in words
T1 construct: 10 nM Aurora-A 122–403 C290A C393A phosphorylated protein; His (N, cleaved yes); made in house; host or cells: E. coli B834 (no lambda phosphatase)
T1 sequence (O14965 122-403 C290A/C393A): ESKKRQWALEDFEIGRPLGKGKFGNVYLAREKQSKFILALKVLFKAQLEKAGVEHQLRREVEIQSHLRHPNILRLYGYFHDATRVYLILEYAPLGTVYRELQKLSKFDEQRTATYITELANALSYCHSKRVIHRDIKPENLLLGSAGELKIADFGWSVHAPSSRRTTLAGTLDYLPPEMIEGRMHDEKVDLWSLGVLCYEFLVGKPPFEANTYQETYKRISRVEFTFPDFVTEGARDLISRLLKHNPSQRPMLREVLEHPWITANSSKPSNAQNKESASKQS
In short: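 Reactions started with 10 μM ATP and 100 μM kemptide, 60 min at room temperature, then ADP-Glo luminescence read-out. Control-subtracted signals from three repeats averaged and fitted to sigmoidal curves for IC50 and EC50.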

[2] = system: γ-tubulin in RPE1 cells; experiment: Immunofluorescence, γ-tubulin centrosomal signal intensity, RPE1; type: cell-based, Homo sapiens; details: RPE1 p53-/-, Aurora-A inhibitor 30 min
Protocol: As noted in the figures, the following drugs were incubated with cells for 30 min at 37 °C: Aurora-B-i ZM447439 2 µM [10 mM], PLK1-I BI2536 1 µM [10 mM] and Aurora-A-i MLN8237 [5 mM] was used at 250 and 500 nM in U251 and RPE1 cells, respectively. Drugs were resuspended in DMSO to the stock concentrations indicated in square brackets. BI2536 (HY-50698), MLN8237 (HY-10971) and ZM447439 (HY-10128) were all purchased from MedChemExpress. For western blotting, a 20-min pre-treatment with proteasome inhibitor (20 µM MG-132, MerckMillipore, 47490 [20 mM]) was required prior to the addition of DMSO control or kinase inhibitors. This prevented mitotic exit as a consequence of checkpoint override following Aurora-A and Aurora-B inhibitor addition.
For siRNA depletion, 1 × 10^5 cells were seeded in six-well plates and transfected as described above for 48 h prior to fixation. For all other experiments, 2.5 × 10^5 cells were seeded in six-well plates and grown for 24 h before fixation. All cells were grown on 12 mm diameter glass coverslips (VWR, 631–1577). […]
For CEP192, LATS2-pS83, PCNT, PLK1 and γ-tubulin intensity, a 20-pixel diameter circle was centred over each centrosome and the intensity measured. […]

effect on Aurora-A kinase activity [1]: fully inhibited activity
SMILES: COc1cc(Nc2ncc3c(n2)-c2ccc(Cl)cc2C(c2c(F)cccc2OC)=NC3)ccc1C(=O)O [Alisertib]
centrosomal γ-tubulin [2]: significant drop in centrosomal γ-tubulin
